Results: ChEMBL document CHEMBL1201862, “PubChem BioAssay data set” (2004)
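Grown in 96-well plates, cells were treated for 48 hours with each compound at five concentrations. Insufficient inhibition: endpoint recorded as highest concentration tested. GI50 is the concentration that inhibits growth by half.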 The source made the active and inactive calls. No stated cut-off is given here; in the data, active = GI50 up to about 1.1 µM and inactive = higher.

Legend:
Assay in all cases: inhibition of tumour cell growth, NCI panel, 48 h
SF-295 = system: SF-295
SK-OV-3 = system: SK-OV-3
UACC-257 = system: UACC-257
SNB-19 = system: SNB-19
EKVX = system: EKVX
LOX IMVI = system: LOX IMVI
SK-MEL-5 = system: SK-MEL-5
SF-268 = system: SF-268
RXF 393 = system: RXF 393
HOP-92 = system: HOP-92
OVCAR-8 = system: OVCAR-8
NCI-H23 = system: NCI-H23
NCI-H226 = system: NCI-H226
IGROV-1 = system: IGROV-1
M14 = system: M14
TK-10 = system: TK-10
HCC 2998 = system: HCC 2998
SK-MEL-28 = system: SK-MEL-28
SNB-75 = system: SNB-75

Row | Compound | GI50 (SF-295) | GI50 (SK-OV-3) | GI50 (UACC-257) | GI50 (SNB-19) | GI50 (EKVX) | GI50 (LOX IMVI) | GI50 (SK-MEL-5) | GI50 (SF-268) | GI50 (RXF 393) | GI50 (HOP-92) | GI50 (OVCAR-8) | GI50 (NCI-H23) | GI50 (NCI-H226) | GI50 (IGROV-1) | GI50 (M14) | GI50 (TK-10) | GI50 (HCC 2998) | GI50 (SK-MEL-28) | GI50 (SNB-75)
1 | Cc1ccc(/C=C2\CN(C)CC3=C2N=C(S)NC3c2ccc(C)cc2)cc1 (stereo not given) | 36.9 µM (inactive) | > 100 µM (inactive) | 7 µM (inactive) | 73.5 µM (inactive) | 41.8 µM (inactive) | 30.3 µM (inactive) | 25.7 µM (inactive) | 44.4 µM (inactive) | 31.6 µM (inactive) | 18.2 µM (inactive) | 25.5 µM (inactive) | 39 µM (inactive) | 27.8 µM (inactive) | 47.2 µM (inactive) | 27.3 µM (inactive) | 0.341 µM (active) | 41.5 µM (inactive) | > 100 µM (inactive) | 10.2 µM (inactive)
2 | N#CC1=C(N)OC2=C(CCCc3ccc([N+](=O)[O-])cc32)C1c1ccccc1 (stereo not given) | 3.21 µM (inactive) | 8.07 µM (inactive) | 5.13 µM (inactive) | 5.86 µM (inactive) | 6.19 µM (inactive) | 5.35 µM (inactive) | 3.38 µM (inactive) | 5.41 µM (inactive) | 4.18 µM (inactive) | 6.46 µM (inactive) | 7.48 µM (inactive) | 4.97 µM (inactive) | 8.3 µM (inactive) | 4.19 µM (inactive) | 3.13 µM (inactive) | 12.4 µM (inactive) | 2.18 µM (inactive) | 5.82 µM (inactive) | 82.8 µM (inactive)
3 | CO/C(N)=C(C#N)/N=C/c1ccccc1 | > 100 µM (inactive) | > 100 µM (inactive) | > 100 µM (inactive) | 66.2 µM (inactive) | 66.7 µM (inactive) | > 100 µM (inactive) | > 100 µM (inactive) | > 100 µM (inactive) | > 100 µM (inactive) | > 100 µM (inactive) | > 100 µM (inactive) | > 100 µM (inactive) | > 100 µM (inactive) | > 100 µM (inactive) | 79.6 µM (inactive) | > 100 µM (inactive) | > 100 µM (inactive) | > 100 µM (inactive) | > 100 µM (inactive)
4 | CC1(C)OC(=S)N(c2ccccc2)C12C=Cc1ccccc1O2 (stereo not given) | 73.5 µM (inactive) | 16.6 µM (inactive) | 42.1 µM (inactive) | > 100 µM (inactive) | 53.5 µM (inactive) | > 100 µM (inactive) | 56.5 µM (inactive) | > 100 µM (inactive) | > 100 µM (inactive) | 88.3 µM (inactive) | > 100 µM (inactive) | 41 µM (inactive) | 85.3 µM (inactive) | 41.6 µM (inactive) | 90.6 µM (inactive) | > 100 µM (inactive) | > 100 µM (inactive) | > 100 µM (inactive) | 49.2 µM (inactive)
5 | O=C1/C(=N\NC(=S)NC2CCCCC2)c2cc([N+](=O)[O-])ccc2N1CN1CCOCC1 | 3.67 µM (inactive) | 13 µM (inactive) | 10.5 µM (inactive) | 7.87 µM (inactive) | 3.13 µM (inactive) | 5.04 µM (inactive) | 3.16 µM (inactive) | 4.35 µM (inactive) | 12.4 µM (inactive) | 1.96 µM (inactive) | 3.9 µM (inactive) | 5.93 µM (inactive) | 19.1 µM (inactive) | 1.51 µM (inactive) | 9.53 µM (inactive) | 6.76 µM (inactive) | 4.93 µM (inactive) | 10.9 µM (inactive) | 11.5 µM (inactive)
